System: Pseudomonas aeruginosa (ATCC 10145)
Experiment: MIC by microbroth dilution and synergy index, Pseudomonas aeruginosa
Type: cell-based
Settings: product level
Protocol: MICs were determined via microbroth dilution using the following specific test parameters:
Necessary organism dilutions via OD600 were calculated based on OD600 of 1.0 being equivalent to 8*10^8 CFU/mL. Biocide dilutions were performed in 2-fold increments for each assay.
Synergy index (SI) scores were calculated according to the mass action equation below:
S.I.=[MIC[A] in-blend/MIC[A] alone]+[MIC[B] in-blend/MIC[B] alone]
Combinations of ingredients were determined to be synergistic (S.I.≤0.5), additive (S.I.>0.5 to 1), indifferent (S.I.>1 to <2) or antagonistic (S.I.≥2), as defined by EUCAST guidelines^1. 1 European Committee for Antimicrobial Susceptibility Testing (EUCAST) of the European Society of Clinical Microbiology and Infectious Diseases (ESCMID). EUCAST Definitive Document E.Def 1.2, May 2000: Terminology relating to methods for the determination of susceptibility of bacteria to antimicrobial agents. Clin. Microbiol. Infect. Off. Publ. Eur. Soc. Clin. Microbiol. Infect. Dis. 6, 503-508 (2000).
MIC values for Mergal BIT20X (20% BIT), individual amines, and 1:1 mixtures of amines and Mergal BIT20X were determined against the test organism Pseudomonas aeruginosa (ATCC 10145) using 96-well microbroth dilution methodology.
Synergy of Jeffamine T403 and Mergal BIT20X mixtures from 1:50 to 50:1 were tested against P. aeruginosa. Jeffamine T403 was diluted to 20% w/w before mixing with Mergal BIT20X at the indicated ratios. The results are plotted in FIG. 1. Jeffamine T403 and Mergal BIT20X are synergistic at ratios with excess T403. In FIG. 1, the x-axis indicates the fractional BIT level in the blend (1=100% BIT, 0=100% T403, 0.5=50% BIT, 50% T403, etc.), the left y-axis is the MIC against Pseudomonas aeruginosa (ATCC 10145), and the right y-axis is the calculated Synergy Index (SI). The dotted line indicates the synergy index cutoff as defined by EUCAST guidelines (SI<0.5). The MIC raw data is presented in Table 3; MIC values are reported on active concentration.

| Compound | MIC, Amine Only, Avg. | MIC, Amine Only, Rep. 1 | MIC, Amine Only, Rep.2 |
| --- | --- | --- | --- |
| CC(CN)CCCN (stereo not drawn) [Dytek A] | 2500 ppm | 2500 ppm | 2500 ppm |
| NCCNCCNCCN [TETA] | 938 ppm | 625 ppm | 1250 ppm |
